The text below walks through data of patent US20120115724A1, “METHOD OF CONTROLLING UNDESIRED VEGETATION” (SYNGENTA CROP PROTECTION LLC, priority 2009, published 2012).

The structures appear in SMILES notation.

Assay in all cases: Post-emergence crop and weed test (Example 15)
Assay type in all cases: in vivo

Test [1] relates to AMARE Amaranthus retroflexus. As to conditions: 360 h, 125 g/ha, after 15 days, read-out: Percentage damage AMARE. Here is the method: (§1) Seeds of crop and representative weed species were sown in standard soil in pots. After cultivation for 14 days under controlled conditions in a glasshouse (at 22/16° C., day/night; 16 hours light; 65% humidity), the plants were sprayed. The spray solution was prepared by dissolving the technical active ingredient in acetone containing 10.56 wt % Emulsogen EL, 42.22 wt % N-methylpyrrolidone and 2.22 wt % DPG-monoethyl ether to give a 5% stock solution. This was then diluted with water containing 0.2% (v/v) of the adjuvant X-77 to give the desired treatment concentration.
(§2) The test plants were then grown on under controlled conditions in a glasshouse (at 22/16° C., day/night; 16 hours light; 65% humidity) and watered twice daily. After 15 days the test was evaluated (100 =total damage to plant; 0 =no damage to plant).

Test [2] relates to XANST Xanthium strumarium. As to conditions: 360 h, 125 g/ha, after 15 days, read-out: Percentage damage XANST. Here is the method: as §1, §2
The subject of test [3] is VERPE Veronica persica. The following applies: 360 h, 125 g/ha, after 15 days, read-out: Percentage damage VERPE. Here is the method:
as §1, §2

Test [4] has as its system SINAR Sinapis arvensis. As to conditions: Mutarda arvensis, 360 h, 125 g/ha, after 15 days, read-out: Percentage damage SINAR. Here is the method:
as §1, §2

The test system of test [5] is KCHSC Kochia scoparia. The following applies: Bassia scoparia, 360 h, 125 g/ha, after 15 days, read-out: Percentage damage KCHSC. Here is the method: as §1, §2
Test [6] relates to GALAP Galium aparine. As to conditions: 360 h, 125 g/ha, after 15 days, read-out: Percentage damage GALAP. The procedure: as §1, §2
For test [7], the system named is CHEAL Chenopodium album. The following applies: 360 h, 125 g/ha, after 15 days, read-out: Percentage damage CHEAL. The procedure:
as §1, §2

Test [8] deals with ABUTH Abutilon theophrasti. As to conditions: 360 h, 125 g/ha, after 15 days, read-out: Percentage damage ABUTH. The procedure:
as §1, §2

For test [9], the system named is POLCO Polygonum convolvulus. As to conditions: Fallopia convolvulus, 360 h, 125 g/ha, after 15 days, read-out: Percentage damage POLCO. The procedure: as §1, §2
Test [10] has as its system EPHHL Euphorbia heterophylla. The following applies: 360 h, 125 g/ha, after 15 days, read-out: Percentage damage EPHHL. The procedure: as §1, §2
The test system of test [11] is GLXMA Soybean. The following applies: Glycine max, 360 h, 125 g/ha, after 15 days, read-out: Percentage damage GLXMA. The procedure:
as §1, §2

Test [12] deals with IPOHE Ipomoea hederacea. As to conditions: 360 h, 125 g/ha, after 15 days, read-out: Percentage damage IPOHE. The procedure:
as §1, §2

The subject of test [13] is SIDSP Sida spinosa. The following applies: 360 h, 125 g/ha, after 15 days, read-out: Percentage damage SIDSP. Here is the method:
as §1, §2

With `C=Cc1c(NCc2ccco2)nc(C2CC2)nc1C(=O)OC` [Ref. Ex. F, 2-Cyclopropyl-5-ethenyl-4-(furan-2-ylmethylamino)-6-methoxycarbonyl-pyrimidine, reference compound], the pest or weed control at 125 g/ha is 40% in test [1]; 60% in test [2]; 0% in test [3]; 80% in [4]; 30% in [5]; 80% in test [6]. The pest or weed control at 125 g/ha in [7] is 80%; in test [8], 60%; in test [9], 60%; in test [10], 80%; in test [12], 70%; in test [13] it was 60%. Moreover, in [11], the plant injury at 125 g/ha stood at 80%.
With `C/C=C/c1c(N)nc(C2CC2)nc1C(=O)OC` [Ref. Ex. D, (E)-4-Amino-2-cyclopropyl-6-methoxycarbonyl-5-(prop-1-enyl)-pyrimidine, reference compound], the pest or weed control at 125 g/ha in test [1] is 60%; in test [2], 60%; in [3] it was 10%; in test [4], 80%; in test [5] it was 10%; in test [6] it was 80%. The pest or weed control at 125 g/ha in [7] was found to be 60%; in test [8], 50%; in test [9] it was 20%; in test [10], 80%; in [12], 70%; in test [13], 60%. For the same compound, the plant injury at 125 g/ha in test [11] came to 80%.
